In data set [1] the test system is paddy field rice, soybeans, corn, cotton and purple nutsedge. Nature of the data set: Plant growth retardation. It is filed as in vivo. The text has this:
(§1) A plastic pot was filled with upland soil to provide a surface area of soil of 150 cm^2. Seeds of paddy field rice, soybeans corn and cotton were sowed, Tubers of the perennial weed, purple nutsedge (Cyperus rotundus) were then planted into each pot and the seeds and tubers were covered with the same soil. The pots were placed in a greenhouse for 10 days, after which aqueous solutions of Substance No. 51262 (prepared as described hereafter in Example 11) to the required concentrations were mixed with 0.03% v/v of the spreader Gramin S. 5 ml of the resulting solution were sprayed onto each pot. The growth of the resulting plants were compared after 2 weeks with a control which had not been so treated.

The next data set has as its system mice. The note with it: mouse, in vivo, iv, 100 mg/kg. The procedure:
A solution of Substance No. 51262 was administered intravenously to mice in an amount of 100 mg/kg bodyweight.

A further data set deals with various weeds. Nature of the data set: Herbicidal activity against weeds, pre- and post-emergence (summary statement). It is filed as in vivo.
The nature of the next data set: Solubility. Format: physicochemical. An excerpt: (j) solubility: soluble in water, methanol and ethanol; insoluble in ethyl acetate and acetone;
The next data set has as its system purple nutsedge. The data set is described as follows: Plant growth retardation, purple nutsedge. Format: in vivo, Cyperus rotundus. The note with it: 500 ppm; after 2 weeks vs untreated control.
From the text: as §1

A further data set relates to Komatsuna seeds. Nature of the data set: Inhibitory effect on the germination of Komatsuna seeds. The note with it: Brassica rapa, 72 h; 28° C. for 3 days; read-out: minimum inhibitory concentration against the germination of Komatsuna seeds. It is filed as in vivo, Brassica rapa (L) var. Komatsuna Hara. How it is done:
Sterilized cotton was placed on the bottom of a test tube (10 mm×100 mm) to a height of about 5 mm, and the cotton was then soaked with 0.5 ml of either distilled water or of an aqueous solution containing various concentrations of Substance No. 51262. About 10 seeds of the plant Komatsuna [Brassica rapa (L) var. Komatsuna Hara] were placed into each test tube and allowed to stand at 28° C. for 3 days to determine the inhibitory concentration of Substance No. 51262, assessed by the presence or absence of germination.

The values below come from patent US4952234A, “Imidazoledione compounds useful as herbicides” (Sankyo Company Limited, priority 1985, dated 1990).

Take `O=C1NC(=O)[C@@]2(N1)O[C@H](CO)[C@@H](O)[C@H]2O` [Substance No. 51262]: the growth retardation entry in data set [1] (125 ppm, all plants, after 2 weeks vs untreated control) is on record as “about 50%”. Besides, the plant growth retardation result in data set [1] (summary statement) was “can retard plant growth without killing the plants”. For the same compound, in the data set with mice, the abnormalities observed result is on record as “no abnormalities were detected”. Also, the herbicidal activity entry with various weeds was “excellent herbicidal activity”. For the same compound, the solubility result in the data set “Solubility” (acetone) is “insoluble”; in the data set “Solubility” (ethanol), “soluble”; in “Solubility” (ethyl acetate), “insoluble”; in “Solubility” (methanol) it was “soluble”; in the data set “Solubility” (water), “soluble”. Moreover, in the data set with purple nutsedge, the “growth inhibition of the shoot and rhizome” value is on record as “almost complete growth inhibition”. Besides, in the data set with Komatsuna seeds, the minimal effective concentration was found to be 3.13 µg/mL.
